The text below walks through data of patent US20240336608A1, “IL4I1 INHIBITORS AND METHODS OF USE” (Merck Sharp & Dohme LLC, priority 2023, published 2024).

One may read the EC50 as the concentration giving half of the maximal effect.

In the test the target is T1, recombinant IL4I1 (Homo sapiens, UniProt Q96RQ9).
T1 construct: purchased R&D Systems 5684-AO-020
T1 sequence (Q96RQ9 22-567): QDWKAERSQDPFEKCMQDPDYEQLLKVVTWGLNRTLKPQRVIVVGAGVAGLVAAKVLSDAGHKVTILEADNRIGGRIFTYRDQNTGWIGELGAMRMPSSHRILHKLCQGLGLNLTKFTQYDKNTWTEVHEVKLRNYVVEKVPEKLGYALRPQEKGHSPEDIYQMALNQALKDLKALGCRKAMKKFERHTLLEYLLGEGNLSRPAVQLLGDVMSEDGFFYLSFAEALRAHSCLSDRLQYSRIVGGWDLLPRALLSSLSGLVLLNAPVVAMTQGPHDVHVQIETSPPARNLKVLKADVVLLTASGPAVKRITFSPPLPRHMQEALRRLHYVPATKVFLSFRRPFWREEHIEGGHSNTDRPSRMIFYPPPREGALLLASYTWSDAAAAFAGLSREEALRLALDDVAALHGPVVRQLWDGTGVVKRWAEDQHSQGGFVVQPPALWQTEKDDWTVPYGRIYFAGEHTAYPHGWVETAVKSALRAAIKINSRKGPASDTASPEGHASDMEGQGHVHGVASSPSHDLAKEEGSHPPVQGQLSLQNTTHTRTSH
Description: IL4I1 Enzymatic Assay (Amplex Red/HRP coupled detection of H2O2, fluorescence). In kind it is biochemical. The following applies: 1 nM recombinant IL4I1; four-hour pre-incubation with compound; 1 mM each Phe, Tyr, Trp; ten-point titration. Put shortly: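 H2O2 output was coupled to resorufin fluorescence (ex 544/em 590) via 0.05 mM Amplex Red and 1 U/mL HRP. Substrate: Phe, Tyr, Trp at 1 mM each; enzyme 1 nM, 4 h compound pre-incubation, 120 min reaction, pH 7.0 Hepes. EC50 by nonlinear four-parameter regression, 1:3 ten-point titration.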
With `Cc1ccc(-n2cc(C(=O)NCc3cc(-c4cccc(F)c4)no3)nn2)c(C)n1` [Example 223, 1-(2,6-dimethylpyridin-3-yl)-N-{[3-(3-fluorophenyl)-1,2-oxazol-5-yl]methyl}-1H-1,2,3-triazole-4-carboxamide], the concentration giving a half-maximal response (EC50) amounted to 58 nM.
Take `Cn1cc(C(=O)NCc2cc(-c3ccccc3Cl)no2)nn1` [Example 224, N-{[3-(2-chlorophenyl)-1,2-oxazol-5-yl]methyl}-1-methyl-1H-1,2,3-triazole-4-carboxamide]: the concentration giving a half-maximal response (EC50) came to 832 nM.
The result for `Cn1cc(C(=O)NCc2cc(-c3ccccc3Cl)on2)nn1` [Example 225, N-{[5-(2-chlorophenyl)-1,2-oxazol-3-yl]methyl}-1-methyl-1H-1,2,3-triazole-4-carboxamide] reads 856 nM; that for `Cn1cc(C(=O)NCc2cc(-c3cccc(F)c3)no2)nn1` [Example 226, N-{[3-(3-fluorophenyl)-1,2-oxazol-5-yl]methyl}-1-methyl-1H-1,2,3-triazole-4-carboxamide], 349 nM.
The result for `Cc1ccc(-n2cc(C(=O)NCc3nnc(-c4ccc(F)cc4)s3)nn2)c(C)n1` [Example 227, 1-(2,6-dimethylpyridin-3-yl)-N-{[5-(4-fluorophenyl)-1,3,4-thiadiazol-2-yl]methyl}-1H-1,2,3-triazole-4-carboxamide] reads 69 nM; that for `Cc1ccc(-c2cc(C(=O)NCc3nnc(-c4ccccc4)s3)no2)c(C)n1` [Example 228, 5-(2,6-dimethylpyridin-3-yl)-N-[(5-phenyl-1,3,4-thiadiazol-2-yl)methyl]-1,2-oxazole-3-carboxamide], 51 nM; that for `COc1ccc(-n2cc(C(=O)NCc3nnc(-c4ccccc4)s3)nn2)c(C)n1` [Example 229, 1-(6-methoxy-2-methylpyridin-3-yl)-N-((5-phenyl-1,3,4-thiadiazol-2-yl)methyl)-1H-1,2,3-triazole-4-carboxamide], 8 nM.
The result for `Cc1nc(O)ccc1-n1cc(C(=O)NCc2nnc(-c3ccccc3)s2)nn1` [Example 230, 1-(6-hydroxy-2-methylpyridin-3-yl)-N-((5-phenyl-1,3,4-thiadiazol-2-yl)methyl)-1H-1,2,3-triazole-4-carboxamide] reads 6 nM; that for `O=C(NCc1cc(-c2ccccc2)no1)c1cn(CC(F)(F)F)nn1` [Example 231, N-((3-phenylisoxazol-5-yl)methyl)-1-(2,2,2-trifluoroethyl)-1H-1,2,3-triazole-4-carboxamide], 30 nM; that for `O=C(NCc1cc(-c2ccccc2)on1)c1cn(CC(F)(F)F)nn1` [Example 232, N-((5-phenylisoxazol-3-yl)methyl)-1-(2,2,2-trifluoroethyl)-1H-1,2,3-triazole-4-carboxamide], 6 nM.
As for `O=C(NCc1nnc(-c2ccccc2)s1)c1cn(CCO)nn1` [Example 233, 1-(2-hydroxyethyl)-N-((5-phenyl-1,3,4-thiadiazol-2-yl)methyl)-1H-1,2,3-triazole-4-carboxamide], the half-maximal effective concentration (EC50) came to 10 nM.
For `Cc1ccc(-n2cc(C(=O)NCc3cc(-c4ccccc4)no3)nn2)c(C)n1` [Example 234, 1-(2,6-dimethylpyridin-3-yl)-N-((3-phenylisoxazol-5-yl)methyl)-1H-1,2,3-triazole-4-carboxamide], the half-maximal effective concentration (EC50) stood at 9 nM.
The result for `Cc1ccc(-n2cc(C(=O)NCc3cc(-c4ccccn4)no3)nn2)c(C)n1` [Example 235, 1-(2,6-dimethylpyridin-3-yl)-N-((3-(pyridin-2-yl)isoxazol-5-yl)methyl)-1H-1,2,3-triazole-4-carboxamide] reads 388 nM; that for `COc1ccc(-n2cc(C(=O)NCc3nnc(-c4ccccc4)s3)nn2)cn1` [Example 236, 1-(6-methoxypyridin-3-yl)-N-((5-phenyl-1,3,4-thiadiazol-2-yl)methyl)-1H-1,2,3-triazole-4-carboxamide], 12 nM.
With `Cc1ccc(-n2cc(C(=O)NCc3cc(-c4ccccc4)on3)nn2)c(C)n1` [Example 237, 1-(2,6-dimethylpyridin-3-yl)-N-((5-phenylisoxazol-3-yl)methyl)-1H-1,2,3-triazole-4-carboxamide], the concentration for a half-maximal effect (EC50) was 7 nM.
`Cc1ccc(-n2cc(C(=O)NCc3cc(-c4ccccn4)on3)nn2)c(C)n1` [Example 238, 1-(2,6-dimethylpyridin-3-yl)-N-((5-(pyridin-2-yl)isoxazol-3-yl)methyl)-1H-1,2,3-triazole-4-carboxamide]: the EC50 turned out to be 76 nM.
The result for `O=C(NCc1nnc(-c2ccccc2)s1)c1nnn2ccccc12` [Example 239, N-((5-phenyl-1,3,4-thiadiazol-2-yl)methyl)-[1,2,3]triazolo[1,5-a]pyridine-3-carboxamide] reads 591 nM.
As for `O=C(NCc1nnc(-c2ccccc2)s1)c1cn(-c2ccncc2)nn1` [Example 240, N-((5-phenyl-1,3,4-thiadiazol-2-yl)methyl)-1-(pyridin-4-yl)-1H-1,2,3-triazole-4-carboxamide], the EC50 is 163 nM.
The figure for `O=C(NCc1nnc(-c2ccccc2)s1)c1cn(Cc2ccccc2)nn1` [Example 241, 1-benzyl-N-((5-phenyl-1,3,4-thiadiazol-2-yl)methyl)-1H-1,2,3-triazole-4-carboxamide] is 11 nM; for `O=C(NCc1nnc(-c2ccccc2)s1)c1cn(-c2cccnc2)nn1` [Example 242, N-((5-phenyl-1,3,4-thiadiazol-2-yl)methyl)-1-(pyridin-3-yl)-1H-1,2,3-triazole-4-carboxamide] it is 705 nM.
`O=C(NCc1nnc(-c2ccncc2)s1)c1cn(C2CC2)nn1` [Example 243, 1-cyclopropyl-N-((5-(pyridin-4-yl)-1,3,4-thiadiazol-2-yl)methyl)-1H-1,2,3-triazole-4-carboxamide]: the concentration giving a half-maximal response (EC50) was found to be 23 nM.
Consider `O=C(NCc1cc(-c2ccncc2)on1)c1cn(C2CC2)nn1` [Example 246, 1-cyclopropyl-N-((5-(pyridin-4-yl)isoxazol-3-yl)methyl)-1H-1,2,3-triazole-4-carboxamide], for which the EC50 came out at 104 nM.
As for `CC(C)(O)c1cc(C(=O)NCc2cc(-c3ccccc3)no2)on1` [Example 247, 3-(2-hydroxypropan-2-yl)-N-((3-phenylisoxazol-5-yl)methyl)isoxazole-5-carboxamide], the 50% effective concentration (EC50) amounted to 916 nM.
The result for `CC(C)(O)c1cc(C(=O)NCc2cc(-c3ccccc3)on2)on1` [Example 248, 3-(2-hydroxypropan-2-yl)-N-((5-phenylisoxazol-3-yl)methyl)isoxazole-5-carboxamide] reads 303 nM; that for `O=C(NCc1nnc(-c2ccncc2)s1)c1cn(CC(F)(F)F)nn1` [Example 249, N-((5-(pyridin-4-yl)-1,3,4-thiadiazol-2-yl)methyl)-1-(2,2,2-trifluoroethyl)-1H-1,2,3-triazole-4-carboxamide], 15 nM.
Consider `O=C(NCc1cc(-c2ccccc2)no1)c1cn(C2COC2)nn1` [Example 253, 1-(oxetan-3-yl)-N-((3-phenylisoxazol-5-yl)methyl)-1H-1,2,3-triazole-4-carboxamide], for which the EC50 turned out to be 209 nM.
Take `CC(C)(O)c1cc(C(=O)NCc2ccc(-c3ccccc3)nn2)on1` [Example 254, 3-(2-hydroxypropan-2-yl)-N-((6-phenylpyridazin-3-yl)methyl)isoxazole-5-carboxamide]: the EC50 amounted to 995 nM.
